In US10683295B2, “Chiral N-acyl-5,6,7(8-substituted)-tetrahydro-[1,2,4]triazolo[4,3-A]pyrazines as selective NK-3 receptor antagonists, pharmaceutical composition, methods for use in NK-3 receptor mediated disorders and chiral synthesis thereof” (Ogeda SA, priority 2011, dated 2020):

System: luteinizing hormone (LH) plasma levels
Experiment: Castrated male rat model, circulating luteinizing hormone (LH)
Format: in vivo
Conditions: single intravenous 10 mg/kg dose, castrated male Sprague-Dawley rats, 1 hour after dosing
Excerpt: Castrated Male Rat Model to Assess the Effect of Compound of Invention on Circulating Levels of Luteinizing Hormone (LH).
Thus, a castrated rat model is used to provide a broad index for measurement of LH inhibition as a marker of test compound inhibition of the GnRH signaling pathway.
Castrated adult male Sprague-Dawley (SD) rats (150-175 g) were purchased from Janvier (St Berthevin, France). […] The animals were allowed 2 weeks of postoperative recovery prior to study. Animals were handled on a daily basis. Standard diet and tap water were provided ad libitum. […] On the study day, animals were acclimated to the procedure room for a period of one hour prior to the initiation of the experiment.
Compounds of the invention were formulated as apyrogen water with 90 g/L (2-Hydroxypropyl)-β-CycloDextrin.
After basal sampling (TO) a single dose of compounds of the invention or vehicle was administrated intravenously to rats. Blood was then collected at 60 min post dosing. Blood samples were obtained via tail vein bleed, drawn into EDTA-containing tubes and centrifuged immediately. […] Serum LH levels were determined using radioimmunoassay kit from RIAZEN—Rat LH, Zentech (Liege, Belgium). Baseline was defined as the initial basal blood sample.

In the case of `Cc1nc(-c2nnc3n2CCN(C(=O)c2ccc(-c4cccs4)cc2)[C@@H]3C)cs1` [Compound 1, (R)-(8-methyl-3-(2-methylthiazol-4-yl)-5,6-dihydro-[1,2,4]triazolo[4,3-a]pyrazin-7(8H)-yl)(4-(thiophen-2-yl)phenyl) methanone], the “circulating LH levels” value is reported as “significantly suppressed”.
`Cc1csc(-c2nnc3n2CCN(C(=O)c2ccc(-c4cccs4)cc2)[C@@H]3C)n1` [Compound 19, (R)-(8-methyl-3-(4-methylthiazol-2-yl)-5,6-dihydro-[1,2,4]triazolo[4,3-a]pyrazin-7(8H)-yl)(4-(thiophen-2-yl)phenyl)methanone] was tested, and the “circulating LH levels” value was “significantly suppressed”.
